From patent US7235539B2, “6-Hydroxyequilenins as estrogenic agents” (Wyeth, priority 2002, dated 2007) come the findings set out here.

In one assay the target is T1, human ERβ (Homo sapiens, UniProt Q92731).
T1 construct: M214–Q530 of human ERβ; Flag (C); made in house; host or cells: E. coli BL21(DE3), clarified lysate
Kind of assay: Radioligand binding competition with [3H]-17β-estradiol, ERβ. The settings on record: human ERβ ligand binding domain extract, read-out: ER-β IC50.

For assay [1], the system named is metallothionein-II mRNA in Saos-2 cells (via ERβ). Description: Regulation of metallothionein II mRNA in Saos-2 cells. The assay is classed as cell-based. The source says: Estrogens acting through ERβ, but not ERα can upregulate metallothionein II mRNA levels in Saos-2 cells as described by Harris [Endocrinology 142: 645–652 (2001)]. Results from this test procedure can be combined with results from the test procedure described below (ERE reporter test procedure) to generate a selectivity profile for compounds of this invention (see also WO 00/37681).

In another assay the target is T2, human ERα (Homo sapiens, UniProt P03372).
T2 construct: amino acids M250–V595 of human ERα; His tag (N); made in house; host or cells: E. coli BL21(DE3), clarified lysate
T2 sequence (P03372 250-595): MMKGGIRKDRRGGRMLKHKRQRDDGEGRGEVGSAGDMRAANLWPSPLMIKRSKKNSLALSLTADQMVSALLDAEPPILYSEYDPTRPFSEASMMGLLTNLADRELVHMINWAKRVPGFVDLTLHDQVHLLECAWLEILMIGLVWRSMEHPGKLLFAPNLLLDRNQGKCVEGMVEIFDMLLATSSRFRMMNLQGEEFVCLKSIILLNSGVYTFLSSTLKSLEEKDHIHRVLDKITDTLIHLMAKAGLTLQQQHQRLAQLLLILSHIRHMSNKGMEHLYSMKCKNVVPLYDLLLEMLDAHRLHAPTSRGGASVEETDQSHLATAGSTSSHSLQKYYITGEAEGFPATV
Description: Radioligand binding competition with [3H]-17β-estradiol, ERα. The settings on record: human ERα ligand binding domain extract, read-out: ER-α IC50.

Each structure is given as a SMILES string. pIC50: −log10 of the molar value.

T1 sequence (Q92731 214-530): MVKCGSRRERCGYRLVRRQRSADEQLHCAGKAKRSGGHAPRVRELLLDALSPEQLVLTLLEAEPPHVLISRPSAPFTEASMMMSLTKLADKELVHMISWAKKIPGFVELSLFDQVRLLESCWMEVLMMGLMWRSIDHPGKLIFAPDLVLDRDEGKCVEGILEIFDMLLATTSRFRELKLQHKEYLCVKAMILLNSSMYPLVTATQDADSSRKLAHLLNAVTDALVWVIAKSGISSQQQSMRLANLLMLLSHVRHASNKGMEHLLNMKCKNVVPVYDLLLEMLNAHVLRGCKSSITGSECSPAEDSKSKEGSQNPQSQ

`CC12CCc3c(cc(O)c4cc(O)ccc34)C1CCC2=O` (stereo not drawn) [Compound 1, 6-Hydroxyequilenin]: the pIC50 at human ERβ was 6.91; at human ERα, 5.66. Further, the “Fold upregulation of metallothionein-II mRNA” value in assay [1] came to 11.
For `CC12CCc3c(cc(O)c4cc(O)ccc34)C1CC[C@@H]2O` (stereo partly drawn) [Compound 5, 6-Hydroxy-3,17β-dihydroequilenin], in that order: 7.80, 6.62 and 11.
